Reference: patent US5283372A, “Preparation of purified optical isomers of desflurane” (Anaquest, Inc., priority 1993, dated 1994)
“Also recorded” adds a separate entry of the source.

Tests used:
[1] = test system: Male Swiss-Webster mice (loss of righting); experiment: Loss of righting (LOR) in mice: potency, onset and recovery of inhaled anesthetic; assay type: in vivo, mouse (Swiss-Webster); details: mouse; for Recovery (mean time to ambulation) / Onset (mean time to LOR): at the EC50 concentration; for Onset (mean time to LOR): six animals; for EC50 (loss of righting): inhalation in 1900 ml container flushed with 100% oxygen, LOR within two minutes and supine for thirty seconds, * significant at P<0.05
Procedure: Male Swiss-Webster mice, about 22-25 g, were allowed free access to food and water and housed ten to a cage in a temperature (22.2°) and humidity (50%) controlled vivarium with a twelve hour light-dark cycle.
The test anesthetic was pipetted into a 1900 ml container previously flushed for one minute with 100% oxygen. The container was sealed, rotated to insure complete evaporation of test compound and allowed to stand for five minutes. The approximate concentration of the anesthetic was calculated. Six animals were tested at each concentration of racemate and its purified optical isomers. The animals were placed in the container in groups of three. The container was rotated periodically.
The percentage of mice to lose their righting ability within two minutes and remain supine for thirty seconds was noted. Loss of righting (LOR) at four concentrations, including EC0 and EC100, were used to determine the EC50. Subsequently, onset (defined as the mean time for six animals to LOR) and recovery (defined as the mean time to ambulation) were determined at the EC50 concentration. Potency (defined by the dose-response curve) of each compound was compared using a parallel line analysis. Onset and recovery means were compared using a Student's T-Test P<0.05. The results are reported in Table I. In the Table, "S.D." is standard deviation, "C.L." is confidence level and "EC50 " is the effective concentration in one half of the animals tested.

[2] = test system: Male Sprague-Dawley rats (loss of righting); experiment: Loss of righting (LOR) in rats: onset and recovery at EC100; assay type: in vivo, rat (Sprague-Dawley); details: rat; for Recovery (of righting): EC100 concentration, removed five minutes after LOR; for Onset of LOR: at EC100 concentration, five rats per anesthetic
Procedure: (§1) Male Sprague-Dawley rats were maintained as were the mice in Example 7. The animals were trained to maintain their balance for ninety seconds on a rotarod revolving at 10 rpm. The animals were allowed to rest five minutes and again trained to remain on the rotating rotarod for ninety seconds.
(§2) The rats were individually placed into containers which had been purged with 100% oxygen for one minute, and which contained a known concentration of racemic desflurane, or its positive isomer or negative isomer which had been previously determined to be equal to the EC100. Five rats were utilized for each anesthetic.
The onset of LOR was recorded for each animal. The animals remained in the container for five minutes following LOR, and were then removed. Recovery was determined, and the mean calculated.
Onset and recovery were compared across anesthetics using a Student's T Test.

[3] = test system: Male Sprague-Dawley rats (recovery of motor coordination); experiment: Rotarod testing in rats after recovery of righting (Rotarod Index); assay type: in vivo, rat (Sprague-Dawley); details: for Rotarod Index (ROI): ROI=(First+Second×2/3+Third×1/3)/3, average time on rod in seconds at 0, 90, 180 seconds after recovery of righting, maximum 60, rotarod 10 rpm
Procedure: as §1, §2
Following recovery of righting, the animals were placed on the rotarod 0, 90, and 180 seconds thereafter and the length of time they were able to remain on the rod was recorded in each instance. Animals that remained on the rod for a full ninety seconds were not subsequently tested. The durations of maintaining balance were noted and averaged, and the number of animals meeting the ninety second criterion were recorded at each time interval.
A Rotarod Index (ROI) was then calculated according to the following formula.
ROI=(First+Second×2/3+Third×1/3)/3 where First, Second and Third are the average time on the rod in seconds for the respective time intervals. Animals remaining on the rod for the full ninety seconds during either the interval beginning at zero time or ninety seconds were scored with ninety seconds for all subsequent intervals. Therefore, the maximum ROI attainable was […]. The ROI value measures the recovery of motor coordination following drug-induced LOR.

SMILES | Recovery (mean time to ambulation) [1] [min] | Onset (mean time to LOR) [1] [min] | EC50 (loss of righting) [1] [%] | Recovery (of righting) [2] [min] | Onset of LOR [2] [min] | Rotarod Index (ROI) ([3]; rat) | Potency (in words) ([1]; highly purified positive isomer, comparison with negative isomer or racemate, listed as positive isomer of desflurane) | Rotarod test / time to become "street fit" (in words) ([3]; comparison with racemate and negative isomer) | ROI value (in words) ([3]; rat, comparison of isomers) | Recovery time (in words) ([2]; comparison of isomers)
FC(F)OC(F)C(F)(F)F (racemic) [Racemic Desflurane, 2-(difluoromethoxy)-1,1,1,2-tetrafluoroethane, reference compound] | 0.12 | 1.72 | 4.75 | 1.38 | 1.04 | 32.4 | – | – | – | –
FC(F)OC(F)C(F)(F)F (single isomer, unassigned; (+)) [Positive Isomer, (+)-2-(difluoromethoxy-1,1,1,2-tetrafluoroethane] | 0.31 | 1.44 | 4.1 | 0.88 | 0.92 | 38.6 | greater potency; also recorded: improved potency | clearly superior in the rotarod test; also recorded: superior to the racemate and the negative isomer in terms of the time in which a patient would become "street fit" | larger ROI value | –
FC(F)OC(F)C(F)(F)F (single isomer, unassigned; (-)) [Negative Isomer, (-)-2-(difluoromethoxy)-1,1,1,2-tetrafluoroethane] | 0.25 | 1.05 | 4.6 | 0.31 | 1.05 | 28.8 | – | – | – | faster recovery time
